Key:
[1] = tested on: PSN‐1 cells; assay: Mitochondrial membrane potential; assay type: cell-based, human; conditions: 24 h (Figure 5B)
Text: (§1) Iron is a redox active metal that can generate ROS in cells via the Fenton reaction, thus inducing cellular damage and ultimately leading to cell death.[40] […] Based on this premises, we evaluated the effects induced by the diiron complexes on the mitochondria activity and the cellular redox environment. More precisely, we investigated the ROS production and the alteration of the mitochondrial membrane potential. […] The time‐dependent ROS basal production is probably associated to more than one phenomenon. First of all, the progressive disruption of the diiron structure leads to the extrusion of the Fe^I centres, which are expected to subsequently convert into Fe^III (in fact, slow precipitation of iron(III) oxides has been recognized from water solution, see above). Otherwise, based on previous voltammetric measurements on [2E–F]CF3SO3,[41] oxidation of iron enclosed in the complex is out of the range of biologically relevant potentials. […]
(§2) Figure 5 Effects induced by compounds [2C]CF3SO3 and [2D]CF3SO3 at the mitochondrial level. […] The fluorescence of DCF was measured at λ ex=485 nm and λ em=527 nm. […] Fluorescence was estimated at λ ex=490 nm and λ em=590 nm. […]
Mitochondrial membrane potential (ΔΨ). […] Fluorescence intensity was estimated using a VICTOR X3 (PerkinElmer, USA) plate reader at λ ex=490 and λ em=590 nm. […]

[2] = tested on: thioredoxin reductase (TrxR); conditions: cell-free experiment (data not shown)
Text: It has recently emerged that the redox stress induced by some iron complexes might also be attributed to their ability to inhibit the selenoenzyme thioredoxin reductase (TrxR).

[3] = tested on: PSN‐1 cells; assay: ROS production, CM-H2DCFDA fluorescence; assay type: cell-based, human; conditions: time-dependent (Figure 5A)
Text: as §1, with “above).” for “above). Otherwise, based on previous voltammetric measurements on [2E–F]CF3SO3,[41] oxidation of iron enclosed in the complex is out of the range of biologically relevant potentials.”
as §2
ROS production. The production of ROS was measured in PSN‐1 cells (10^4 per well) grown for 24 h in a 96‐well plate in RPMI medium without phenol red (Merck). […] Fluorescence increase was estimated by using λ ex=485 nm and λ em=527 nm in a VICTOR X3 (PerkinElmer) plate reader. […]

[4] = tested on: untransformed HEK293 cells; assay: Cellular uptake, iron by GF-AAS; assay type: cell-based, human; conditions: 50 μM, 24 h, GF-AAS (μg Fe per 10^6 cells, Figure 4A)
Description: (§3) In order to correlate the cytotoxic potential to the ability of the newly developed complexes to enter cells, we performed uptake experiments. […] Thus, cells were treated for 24 h with equimolar concentrations (50 μM) of the tested compounds. The cellular iron levels were quantified by means of GF‐AAS analysis, and the results, expressed as μg Fe per 10^6 cells, are shown in Figure 4A. […]
(§4) Figure 4 Intracellular detection of iron and carbon monoxide. A) Cellular uptake in PSN‐1 and HEK293 cells; cells were incubated with 50 μM of complexes for 24 h, and the cellular iron content was detected by GFAAS analysis. B) Intracellular CO levels were determined by using a fluorescent probe (BioTracker Carbon Monoxide Probe 1 Live Cell Dye®, Merck, Germany) after 30 min of treatment of PSN‐1 or HEK293 cells with 20 μM [2C]CF3SO3 and [2D]CF3SO3, or 20 μM CORM‐401 as positive control. ** P<0.01, * P<0.05.
(§5) Cellular uptake. […] Cell monolayers were washed twice with cold PBS, harvested and counted. […] After cooling, each mineralized sample was analysed for iron using a Varian AA Duo graphite furnace atomic absorption spectrometer (Varian) at the wavelength of 248.3 nm. […]

[5] = tested on: human pancreatic PSN‐1 cancer cells; assay: Cellular uptake, iron by GF-AAS; assay type: cell-based; conditions: PSN‐1 cells, 50 μM, 24 h, GF-AAS (μg Fe per 10^6 cells, Figure 4A)
Description: as §3, §4, §5

[6] = Solubility in D2O by 1H NMR (Me2SO2 internal standard); assay type: physicochemical; conditions: 21 °C
Description: Solubility in water. A suspension of the selected Fe compound (3–5 mg) in a D2O solution (0.7 mL) containing Me2SO2 as internal standard^52 (3.36 ⋅ 10^−3 M) was vigorously stirred at 21 °C for 10 h. The resulting saturated solution was filtered over celite, transferred into an NMR tube and analysed by ^1H NMR spectroscopy (delay time=3 s; number of scans=20). For the most soluble compounds (S≥0.05 M), a saturated solution was prepared in a smaller volume of D2O/Me2SO2 (0.2–0.3 mL), then filtered and diluted with pure D2O. The concentration (solubility) was calculated by the relative integral with respect to Me2SO2 (δ/ppm=3.14 (s, 6H)).

Substance	Cells with depolarized mitochondria (mitochondrial membrane potential) [1]	TrxR inhibition [2]	Cellular ROS production [3]	Cellular iron accumulation (uptake) [4]	Cellular iron accumulation (uptake) [5]	Solubility [6]
[Fe2Cp2(CO)2(μ‐CO){μ‐CNMe(C6H11)}]X [[2C]CF3SO3]	significant dose‐dependent increase of cells with depolarized mitochondria	completely ineffective	substantial increase in cellular ROS production			
[Fe2Cp2(CO)2(μ‐CO){μ‐CNMe(4‐C6H4OMe)}]CF3SO3 [[2D]CF3SO3]	significant dose‐dependent increase of cells with depolarized mitochondria	completely ineffective	substantial increase in cellular ROS production	major iron accumulation in untransformed cells with respect to pancreatic cancer cells	able to induce cellular iron accumulation	
[Fe2Cp2(CO)2(μ‐CO){μ‐CNEt(2‐naphthyl)}]BF4 [[4G]BF4]						not soluble ^[a]
